# Structures can show the parent of a compound that is named as a salt.
# Molecular target: T1, full-length USP7 (Homo sapiens, UniProt Q93009)
# T1 construct: A 45 μl reaction volume containing full-length USP7 (0.5-1.0 nM)
# Experiment: Enzymatic assay to determine IC50 of USP7 inhibitors (Ubiquitin-Rhodamine 110 cleavage)
# Type: biochemical
# Details: full-length USP7 0.5-1.0 nM, 0.5 μM Ubiquitin-Rhodamine 110, 30-60 min at 25° C.
# Method in brief: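 Full-length USP7 (0.5-1.0 nM) was held in HEPES pH 7.5 with NaCl, 2 mM DTT, BSA and Tween20 for 15 min at room temperature before compound was added. The reaction was started with 0.5 μM ubiquitin-rhodamine 110 (final) and run 30-60 min at 25 °C. Fluorescence (485/535 nm) was fitted to a four-parameter curve for IC50.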
# T1 sequence (Q93009 whole entry): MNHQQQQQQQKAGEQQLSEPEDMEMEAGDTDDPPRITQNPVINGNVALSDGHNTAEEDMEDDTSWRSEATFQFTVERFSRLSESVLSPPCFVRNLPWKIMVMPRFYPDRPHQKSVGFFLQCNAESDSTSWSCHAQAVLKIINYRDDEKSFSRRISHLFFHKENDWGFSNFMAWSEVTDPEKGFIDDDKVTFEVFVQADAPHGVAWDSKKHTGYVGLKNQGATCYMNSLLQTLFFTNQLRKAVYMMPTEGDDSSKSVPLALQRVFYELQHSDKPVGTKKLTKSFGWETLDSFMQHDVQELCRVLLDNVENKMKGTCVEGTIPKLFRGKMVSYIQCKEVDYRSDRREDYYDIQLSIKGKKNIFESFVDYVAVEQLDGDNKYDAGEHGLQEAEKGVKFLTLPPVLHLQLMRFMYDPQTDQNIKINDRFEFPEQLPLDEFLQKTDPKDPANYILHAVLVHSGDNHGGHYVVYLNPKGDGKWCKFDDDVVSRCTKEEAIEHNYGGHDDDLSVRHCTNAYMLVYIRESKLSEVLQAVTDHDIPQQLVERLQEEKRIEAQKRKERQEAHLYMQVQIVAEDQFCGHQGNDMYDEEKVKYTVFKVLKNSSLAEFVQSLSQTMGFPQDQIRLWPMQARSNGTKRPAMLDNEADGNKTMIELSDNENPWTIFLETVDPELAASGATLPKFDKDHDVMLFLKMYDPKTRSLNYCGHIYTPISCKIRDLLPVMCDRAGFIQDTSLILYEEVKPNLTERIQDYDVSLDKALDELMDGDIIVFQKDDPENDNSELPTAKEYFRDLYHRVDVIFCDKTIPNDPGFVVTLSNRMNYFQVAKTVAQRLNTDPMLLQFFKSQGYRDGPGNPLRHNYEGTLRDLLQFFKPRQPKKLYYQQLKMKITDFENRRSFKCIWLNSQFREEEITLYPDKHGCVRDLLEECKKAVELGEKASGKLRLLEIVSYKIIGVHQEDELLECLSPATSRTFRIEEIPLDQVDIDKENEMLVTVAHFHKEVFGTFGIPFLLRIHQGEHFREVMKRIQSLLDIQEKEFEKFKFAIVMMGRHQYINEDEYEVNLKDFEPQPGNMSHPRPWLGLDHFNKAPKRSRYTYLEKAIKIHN
row,IC50 [nM],SMILES
1,< 500,"CC1(C)C2C(=O)N(Cc3cc4c(-c5cc(C(F)(F)F)cc6ccn(CC7(F)CCNCC7)c56)ncnn4c3)C(=O)C21 (stereo not shown) [Example 22, 3-((4-(1-((4-fluoropiperidin-4-yl)methyl)-5-(trifluoromethyl)-1H-indol-7-yl)pyrrolo[2,1-f][1,2,4]triazin-6-yl)methyl)-6,6-dimethyl-3-azabicyclo[3.1.0]hexane-2,4-dione hydrochloride]"
2,< 500,"Cl.[2H]C([2H])([2H])n1ccc(=O)n(Cc2cc3c(-c4cc(Cl)cc5ccn(CC6(F)CCNCC6)c45)ncnn3c2)c1=O [Example 131, 3-((4-(5-chloro-1-((4-fluoropiperidin-4-yl)methyl)-1H-indol-7-yl)pyrrolo[2,1-f][1,2,4]triazin-6-yl)methyl)-1-(methyl-d3)pyrimidine-2,4(1H,3H)-dione hydrochloride]"
3,< 500,"Cc1cc(Cl)cc(-c2ncnn3cc(Cn4c(=O)ccn(C(C)C)c4=O)cc23)c1CC1CN[C@@H](C)CO1 (single isomer, unassigned) [Example 113, hydrochloride]"
4,< 500,"CC1(C)C2C(=O)N(Cc3cc4c(-c5cc(Cl)cc6c5N(C5CCNC5)CCC6)ncnn4c3)C(=O)C21 (single isomer, unassigned) [Example 66, 3-((4-(6-chloro-1-(pyrrolidin-3-yl)-1,2,3,4-tetrahydroquinolin-8-yl)pyrrolo[2,1-f][1,2,4]triazin-6-yl)methyl)-6,6-dimethyl-3-azabicyclo[3.1.0]hexane-2,4-dione hydrochloride]"
5,< 500,"Cc1cc(Cl)cc(-c2ncnn3cc(CN4C(=O)C5C(C4=O)C5(C)C)cc23)c1CC1CNCC(C)(C)O1 (racemic) [Example 50, 3-((4-(5-chloro-2-((6,6-dimethylmorpholin-2-yl)methyl)-3-methylphenyl)pyrrolo[2,1-f][1,2,4]triazin-6-yl)methyl)-6,6-dimethyl-3-azabicyclo[3.1.0]hexane-2,4-dione hydrochloride]"
6,< 500,"Cc1cc(Cl)cc(-c2ncnn3cc(CN4C(=O)C5C(C4=O)C5(C)C)cc23)c1OCC1(C)CCNCC1 (stereo not shown) [Example 58, 3-((4-(5-chloro-3-methyl-2-((4-methylpiperidin-4-yl)methoxy)phenyl)pyrrolo[2,1-f][1,2,4]triazin-6-yl)methyl)-6,6-dimethyl-3-azabicyclo[3.1.0]hexane-2,4-dione hydrochloride]"
7,< 500,"CC1(C)C2C(=O)N(Cc3cc4c(-c5cc(Cl)cc6c5N(C5CCNC5)CCC6)ncnn4c3)C(=O)C21 (single isomer, unassigned) [Example 67, 3-((4-(6-chloro-1-(pyrrolidin-3-yl)-1,2,3,4-tetrahydroquinolin-8-yl)pyrrolo[2,1-f][1,2,4]triazin-6-yl)methyl)-6,6-dimethyl-3-azabicyclo[3.1.0]hexane-2,4-dione hydrochloride]"
8,< 500,"CC1(C)C2C(=O)N(Cc3cc4c(-c5cc(Cl)cc6c(F)nn(C[C@@H]7CNCCO7)c56)ncnn4c3)C(=O)C21 (stereo partly drawn) [Example 45, 3-((4-(5-chloro-3-fluoro-1-(((S)-morpholin-2-yl)methyl)-1H-indazol-7-yl)pyrrolo[2,1-f][1,2,4]triazin-6-yl)methyl)-6,6-dimethyl-3-azabicyclo[3.1.0]hexane-2,4-dione hydrochloride]"
9,< 500,"O=C1CNC(=O)N1Cc1cc2c(-c3cc(Cl)cc4ccn(C[C@@H]5CNCCO5)c34)ncnn2c1 [Example 37, (S)-3-((4-(5-chloro-1-(morpholin-2-ylmethyl)-1H-indol-7-yl)pyrrolo[2,1-f][1,2,4]triazin-6-yl)methyl)imidazolidine-2,4-dione hydrochloride]"
10,< 500,"Cc1cc(Cl)cc(-c2ncnn3cc(CN4C(=O)C5C(C4=O)C5(C)C)cc23)c1O[C@@H]1CNC[C@@H]1F (stereo partly drawn) [Example 14, 3-((4-(5-chloro-2-(((3R,4S)-4-fluoropyrrolidin-3-yl)oxy)-3-methylphenyl)pyrrolo[2,1-f][1,2,4]triazin-6-yl)methyl)-6,6-dimethyl-3-azabicyclo[3.1.0]hexane-2,4-dione hydrochloride]"
11,< 500,"Cc1cc(Cl)cc(-c2ncnn3cc(CN4C(=O)CCN(C)C4=O)cc23)c1CC1CNC[C@H](C)O1 (stereo partly drawn) [Example 109, 3-((4-(5-chloro-3-methyl-2-(((6S)-6-methylmorpholin-2-yl)methyl)phenyl)pyrrolo[2,1-f][1,2,4]triazin-6-yl)methyl)-1-methyldihydropyrimidine-2,4(1H,3H)-dione hydrochloride]"
12,< 500,"Cc1cc(Cl)cc(-c2ncnn3cc(Cn4c(=O)ccn(CCF)c4=O)cc23)c1CC1CNC[C@H](C)O1 (stereo partly drawn) [Example 101, 3-((4-(5-chloro-3-methyl-2-(((6S)-6-methylmorpholin-2-yl)methyl)phenyl)pyrrolo[2,1-f][1,2,4]triazin-6-yl)methyl)-1-(2-fluoroethyl)pyrimidine-2,4(1H,3H)-dione hydrochloride]"
13,< 500,"Cc1cc(Cl)cc(-c2ncnn3cc(CN4C(=O)C5C(C4=O)C5(C)C)cc23)c1CC1CNCC2(CC2)O1 (racemic) [Example 46, 3-((4-(2-((4-oxa-7-azaspiro[2.5]octan-5-yl)methyl)-5-chloro-3-methylphenyl)pyrrolo[2,1-f][1,2,4]triazin-6-yl)methyl)-6,6-dimethyl-3-azabicyclo[3.1.0]hexane-2,4-dione hydrochloride]"
